Results on four compounds are retold here after patent publication EP1591123A1, “USES OF NARINGENIN, NARINGIN AND SALTS THEREOF AS EXPECTORANTS IN THE TREATMENT OF COUGH, AND COMPOSITIONS THEREOF” (Su, Wei-wei, priority 2003, dated 2004).

Each structure is given as a SMILES string. Where a name gives a salt, the structure may show the parent alone.

Assay [1] deals with NIH mice. Kind of assay: Antitussive test of Naringin, spraying with concentrated ammonia liquor (Example 28). In kind it is in vivo. The settings on record: for R Value: EDT50 of the treatment / EDT50 of the control x 100%; for EDT50: mice, intra-gastrointestinal, ammonia spray 1 hour after dosing. The source says: 1.Animals: As the stock animals, totally 130 NIH mice, male, each weighed 18.2~21.7g within ordinary standard. Weigh and number each mice accurately first, then pick out the 120 healthy ones who weighed in range from 18.5~21.0g. Ranked in weigh, they were divided into 8 groups in random with each 15. Set up reference groups of negative and positive, and sample groups of high-dose, mid-dose, low-dose Naringin and sodium Naringinate.
• 1) Blank control group: physiological saline, 0.9% NaCl; • 2) Positive control group: 30 mg dextromethorphan hydrobromide was weighed into a 20ml volumetric flask, and physiological saline was accurately added to the volume to obtain the solution for positive control at concentration of 5mg/ml° • 3) Group of low-dose sample Naringin: Proper amount of Naringin was weighed into a suitable volumetric flask, and physiological saline was added to the volume to obtain the solution at concentration of 0.5mg/ml. • 4) Group of mid-dose sample Naringin: Proper amount of Naringin was weighed into a suitable volumetric flask, and physiological saline was added to the volume to obtain the solution at concentration of 1.5mg/ml. • 5) Group of high-dose sample Naringin: Proper amount of Naringin was weighed into a suitable volumetric flask, and physiological saline was added to the volume to obtain the solution at concentration of 4.5mg/ml. • 6) Group of low-dose sample sodium Naringinate: Proper amount of sodium Naringin was weighed into a suitable volumetric flask, and physiological saline was added to the volume to obtain the solution at concentration of 0.5mg/ml. • 7) Group of mid-dose sample sodium Naringinate: Proper amount of sodium Naringin was weighed into a suitable volumetric flask, and physiological saline was added to the volume to obtain the solution at concentration of 1.5mg/ml. • 8) Group of high-dose sample sodium Naringinate: Proper amount of sodium Naringin was weighed into a suitable volumetric flask, and physiological saline was added to the volume to obtain the solution at concentration of4.5mg/ml.
One hour after intra-gastrointestinal administering for the mice, spray with concentrated ammonia liquor for certain intervals. Immediately the spraying was over, put away the mice outside and observe the tussive action. Mark down the times for which they coughed within 1 minute. Only when they coughed, which was characteristic of compression of abdomen or chest with their mouths open, and making coughing noise, for more than 3 times within a minute, tussive action could be admitted.
Calculate the median effective dose(EDT50) with sequential trials. Work out the amount of R with the formula below. If R is greater than 130%, it means the drug will be effective on antitussive action. If R is greater than 150%, it means the drug will be remarkably effective on antitussive action. The formula is shown as below: R =(EDT50 of the treatmnet)/(EDT50 of the control)× 100% [formula] EDT50=log-1c/n(n for amount of animals, c for summation of rx, r for amount of animals in each group, x for logarithm of the dose (time for spraying) )

The test system of assay [2] is mice. Kind of assay: Antitussive test of Naringenin, spray by high concentration ammonia (Example 30). In kind it is in vivo. To be noted: for R Value: EDT50 of the treatment / EDT50 of the control x 100%; for EDT50: mice, oral, dose 0.2 (mg/20g), spray one hour later. The source says:
1. Animal: 120 healthy male mice weighing 19.5-22.1g was grouped into 8 groups random after labeled, which was selected from 130 male mice weighing 19.3-22.6g. Every group was 15 mice. Eight group were set including negative control group, positive control group, high dose group of Naringenin, middle dose group of Naringenin, low dose group of Naringenin, high dose group of sodium salt of Naringenin, middle dose group of sodium salt of Naringenin, low dose group of sodium salt of Naringenin.
• 1) Blank control group: physiological saline, 0.9% NaCl; • 2) Positive control group: 30mg Dextromethorphan Hydrobromide was dissolve into 20 ml physiological saline and the sample concentration was 1.5 mg/ml to obtain the solution for positive control. • 3) low dose group of Naringenin: weighting out the appropriate amount of Naringenin and dissolving it in physiological saline, then the sample concentration was 0.5 mg/ml. • 4) middle dose group of Naringenin: weighting out the appropriate amount of Naringenin and dissolving it in physiological saline, then the sample concentration was 1.5mg/ml. • 5) high dose group of Naringenin: weighting out the appropriate amount of Naringenin and dissolving it in physiological saline, then the sample concentration was 4.5 mg/ml. • 6) low dose group of sodium salt of Naringenin: weighting out the appropriate amount of sodium salt of Naringenin and dissolving it in physiological saline, then the sample concentration was 0.5 mg/ml. • 7) middle dose group of sodium salt of Naringenin: weighting out the appropriate amount of sodium salt of Naringenin and dissolving it in physiological saline, then the sample concentration was 1.5 mg/ml. • 8) high dose group of sodium salt of Naringenin: weighting out the appropriate amount of sodium salt of Naringenin and dissolving it in physiological saline, then the sample concentration was 4.5 mg/ml.
Animals were oral administered, and were sprayed one hour later. After the spray took out the animals and observed the tussive action. Observed the time of tussis in one minutes, if it appeared typical tussis three times in one minutes(shrinking the abdomen muscle or shrinking chest, puffing mouth at the same time, sometimes appearing tussive sound), we consider it "appearing tussis", otherwise "no tussis".
We calculated the spraying time that half of mice were tusisive by sequential method. And calculated the R, the drug was provided with effect of relieve a cough if R>130%. The drug was provided with remarkable effect of relieve a cough if R>150%. Underside is expressions: R=(EDT50 of the treatment)/(EDT50 of the control)× 100% [formula] EDT50=log^-1c/n ('n' is the number of animal, 'c' is the sum of 'rx' value, 'r' is the number of animal in every group, 'x' is the logarithm of dose(namely spray time).)

The mark [3] stands for this setting: 0.2 ml/20g of 0.5 mg/ml, listed as sodium naringinate.
Where [4] appears, read: 0.2 ml/20g of 1.5 mg/ml, listed as sodium naringinate.
[5] abbreviates: 0.2 ml/20g of 4.5 mg/ml, listed as sodium naringinate.

Take `C[C@@H]1O[C@@H](O[C@H]2[C@H](Oc3cc(O)c4c(c3)O[C@H](c3ccc(O)cc3)CC4=O)O[C@H](CO)[C@@H](O)[C@@H]2O)[C@H](O)[C@H](O)[C@H]1O` [sodium salt of Naringin]: the “Effect of relieving cough” value is reported as “effective (If R is greater than 130%, it means the drug will be effective on antitussive action)” in assay [1] (0.2 ml/20g of 0.5 mg/ml); “remarkably effective (If R is greater than 150%, it means the drug will be remarkably effective on antitussive action)” in assay [1] (0.2 ml/20g of 1.5 mg/ml); “remarkably effective (If R is greater than 150%, it means the drug will be remarkably effective on antitussive action)” in assay [1] (0.2 ml/20g of 4.5 mg/ml). Also, the “R Value” in assay [1] (setting [3]) is on record as 142.35%; in assay [1] (setting [4]) it was 155.84%; in assay [1] (setting [5]), 163.94%. The figures for the EDT50 in assay [1] (setting [3]), in assay [1] (setting [4]) and in assay [1] (setting [5]) were 57.68 s, 63.15 s and 66.43 s, respectively.
Regarding `C[C@@H]1O[C@@H](O[C@H]2[C@H](Oc3cc(O)c4c(c3)O[C@H](c3ccc(O)cc3)CC4=O)O[C@H](CO)[C@@H](O)[C@@H]2O)[C@H](O)[C@H](O)[C@H]1O` [Naringin, 4', 5', 7-trihydroxyflavanone-7-rhamnoneglucoside], in assay [1] (0.2 ml/20g of 0.5 mg/ml), the “Effect of relieving cough” value is recorded as “effective (If R is greater than 130%, it means the drug will be effective on antitussive action)”; the “R Value” is recorded as 139.21%; the EDT50 is 56.41 s. Besides, in assay [1] (0.2 ml/20g of 1.5 mg/ml), the “Effect of relieving cough” value is “remarkably effective (If R is greater than 150%, it means the drug will be remarkably effective on antitussive action)”; the “R Value” is 151.36%; the EDT50 amounted to 61.33 s. Moreover, in assay [1] (0.2 ml/20g of 4.5 mg/ml), the “Effect of relieving cough” value was “remarkably effective (If R is greater than 150%, it means the drug will be remarkably effective on antitussive action)”; the “R Value” was determined as 161.72%; the EDT50 stood at 65.53 s. Besides, in assay [1] (compared with dextromethorphan hydrobromide), the “resistance time against cough” value is “remarkably longer”.
For `O=C1C[C@@H](c2ccc(O)cc2)Oc2cc(O)cc(O)c21` [sodium salt of Naringenin], in assay [2] (sample concentration 0.5 mg/ml), the “R Value” amounted to 142.3%, the EDT50 is 55.35 s and the “Effect of relieving cough” value is “effect (the drug was provided with effect of relieve a cough if R>130%)”. In addition, in assay [2] (sample concentration 1.5 mg/ml), the “R Value” is recorded as 178.6%, the EDT50 worked out at 69.48 s and the “Effect of relieving cough” value is “remarkably effect (The drug was provided with remarkable effect of relieve a cough if R>150%)”. Also, in assay [2] (sample concentration 4.5 mg/ml), the “R Value” was found to be 189.1%, the EDT50 stood at 73.56 s and the “Effect of relieving cough” value is reported as “remarkably effect (The drug was provided with remarkable effect of relieve a cough if R>150%)”.
Turning to `O=C1CC(c2ccc(O)cc2)Oc2cc(O)cc(O)c21` (centres unmarked) [Naringenin, 4', 5, 7 -trihydroxyflavanone], in assay [2] (sample concentration 0.5 mg/ml), the “R Value” was determined as 131.85%, the EDT50 turned out to be 51.29 s and the “Effect of relieving cough” value is listed as “effect (the drug was provided with effect of relieve a cough if R>130%)”. For the same compound, in assay [2] (sample concentration 1.5 mg/ml), the “R Value” is given as 169.85%, the EDT50 is 66.07 s and the “Effect of relieving cough” value is recorded as “remarkably effect (The drug was provided with remarkable effect of relieve a cough if R>150%)”. Besides, in assay [2] (sample concentration 4.5 mg/ml), the “R Value” came to 171.23%, the EDT50 was 66.61 s and the “Effect of relieving cough” value is “remarkably effect (The drug was provided with remarkable effect of relieve a cough if R>150%)”. Further, in assay [2] (compared with Dextromethorphan Hydrobromide (positive control group)), the “time of appearing tussis” value is “statistical significance prolonging the time”.
